Series [1] has as its target T1, human β3 -adrenergic receptor (Homo sapiens, UniProt P13945).
T1 construct: expressed in transfected cells; host or cells: CHO-K1 (ATCC CCL 61), clone CHO/pKREX10-36
Kind of series: Human β3-adrenergic receptor-stimulating activity (cAMP accumulation in CHO/pKREX10-36 cells). In kind it is cell-based. The conditions noted are these: for Ratio of EC50 β2 /β3: ratio of EC50 β2-receptor to EC50 β3-receptor; for Emax: read-out: I.A. value β3 -receptor. As for the experimental part:
Establishment of the cell line highly expressing human β3 -adrenergic receptor
Separately, another expression vector for animal cells, pSV2-neo [Southern and Berg, J. Mol. Appl. Genet. […] These DNAs were ligated with DNA Ligation Kit (Takara Shuzo Co., Ltd.) and were introduced into E. coli HB101 in a conventional manner to give the transformants. Plasmid DNAs were prepared from the transformants and digested with a restriction endonuclease PstI. A clone which produced about 3.8 kbp, 2.2 kbp, 1.4 kbp, and 0.9 kbp fragments was selected to give a plasmid named pKCN0.
The reaction mixture was used for transformation of E. coli HB101 and plasmid DNAs were prepared from the selected transformants. The plasmid DNAs were digested with restriction endonucleases DraI and HindIII, and a clone which produced about 430 bp fragment was selected to give a plasmid named pKCN1 for expression vector.
10% Dimethyl sulfoxide was added to the reaction mixture at the PCR reaction.
After the reaction mixture was digested with restriction endonucleases Sse8387I and StuI, about 1.3 kbp fragment was isolated by electrophoresis. This fragment was ligated with expression vector pKCN1 which was digested with restriction endonucleases Sse8387I and EcoRV, and the resultant was introduced into E. coli HB101 in a conventional manner. Plasmid DNA was prepared from the selected transformant and the nucleotide sequence of the about 1.3 kbp fragment obtained by digestion of the plasmid DNA with restriction endonucleases Sse8387I and XhoI was determined. […] This plasmid for expressing human β3 -adrenergic receptor was named as pKREX10.
The reaction mixture was filtered with glass filter GF/C (Whatman) presoaked with 0.3% polyethyleneimine and washed by using BIO-DOT apparatus (Bio-Rad Laboratories), and the radioactivity on the filter was counted by γ-ray counter. […] Establishment of the cell line highly expressing human β2 -adrenergic receptor
(§1) Experiment 1 Human β-adrenergic receptor-stimulating activity:
(§2) The cells were peeled off by incubation with phosphate-buffered saline containing 0.5 mM EDTA at 37° C. for 10 minutes after the medium was removed. The CHO/pKREX10-36 cells were collected by centrifugation, and suspended in Hanks' balanced salts (ICN Biomedicals) containing 1 mM L-ascorbic acid and 1 mM 3-isobutyl-1-methylxanthine at the concentration of about 2×10^6cells/ml. This suspension (100μl) and a test compound were mixed in the same balanced salt (500 μl) and incubated at 37° C. for 30 minutes, followed by boiling for 5 minutes to terminate the reaction. After centrifugation of the reaction mixture, the amount of cAMP in the supernatant was measured by using cAMP EIA System (Amersham).
On the technique in general: cAMP levels reflect the balance of adenylyl cyclase and phosphodiesterase activity.

Series [2] concerns the target T2, human β2 -adrenergic receptor (Homo sapiens, UniProt P07550).
T2 construct: expressed in transfected cells; host or cells: CHO-K1, clone CHO/pKREX21-8
Kind of series: Human β2-adrenergic receptor-stimulating activity (cAMP accumulation in CHO/pKREX21-8 cells). In kind it is cell-based. The conditions noted are these: for Emax: read-out: I.A. value β2 -receptor.
Excerpt: cDNA was synthesized with Poly(A)^+ RNA derived from human brain (Clontech: trade number; CL6516-1) by using SuperScript Systems (Life Technologies).
After the reaction mixture was digested with restriction endonucleases Sse8387I and HindIII, about 1.4 kbp fragment was isolated by electrophoresis. This fragment was ligated with expression vector pKCN1 digested with restriction endonucleases Sse8387I and HindIII, and was introduced into E. coli HB101 in a conventional manner. Plasmid DNA was prepared from the selected transformant, and the nucleotide sequence of the about 1.4 kbp fragment obtained by digestion of this plasmid DNA with restriction endonucleases Sse8387I and HindIII was determined. […] This plasmid was named as pKREX21 for highly expressing human β2 -adrenergic receptor, and was introduced into CHO-K1 in the same manner as the method of establishment of the cell line highly expressing human β3 -adrenergic receptor.
as §1, §2
Similarly, the amount of cAMP was measured by using CHO/pKREX21-8 for highly expressing human β2 -adrenergic receptor instead of the CHO/pKREX10-36 for highly expressing human β3 -adrenergic receptor.

Series [3] relates to glucose level in the blood. Kind of series: Blood glucose reducing activity on fasted mouse. In kind it is in vivo, ddY male mouse. The conditions noted are these: 3 h, read-out: Blood glucose reducing activity (ED25). As for the experimental part: Experiment 2 Blood glucose reducing activity on fasted mouse:
A test compound suspended in 0.5% tragacanth solution was orally administered to a ddY male mouse (weight: 20-30 g) under being fasted, and the blood was collected before and at three hours after the administration of the test compound. The glucose level in the blood was determined by the method of Kunst A., et al. (Hexokinase/G6PDH method) [Bergmeyer, H. U. (eds.), […], vol. VI, 3rd edition, Verlag Chemie GmbH, Weinheim·Deerfield Beach, Florida·Basel, 163-172 (1984)]. The blood glucose reducing activity of the test compound was expressed by ED25 value which is a concentration of the test compound required to reduce the glucose level in blood before the administration of the test compound by 25%. Gliclazide was used as a reference compound which is a commercially available drug for treatment of diabetes mellitus.

Another series deals with bacteria. The conditions noted are these: literature compound; cited from earlier work.
For a further series, the system named is Central nervous system. The conditions noted are these: literature compound; cited from earlier work.
In series [4] the test system is retroperitoneal (white) and interscapular (brown) adipose tissue. Kind of series: Anti-obesity activity on diabetic obese mouse. It counts as in vivo, diabetic obese mouse (KK-Ay/Ta, Jcl. female). The conditions noted are these: 3 mg/kg/day oral for three weeks, significantly different from control, p < 0.01. On the procedure: Experiment 3 Anti-obesity activity on diabetic obese mouse:
A test compound suspended in 0.5% tragacanth solution was orally administrated to a diabetic obese mouse (KK-Ay/Ta, Jcl. female; 50-60 g, Clea Japan Inc.) at a dose of 3 mg/kg/day for three weeks, and then, the retroperitoneal adipose tissue and the interscapulal adipose tissue were taken, and the weights thereof were measured as white adipose tissue and brown adipose tissue, respectively.

Series [5] in a line: Acute toxicity experiment using mice. In kind it is in vivo. The conditions noted are these: oral administration at a dose of 300 mg/kg. An excerpt:
Thus, when taking into consideration the therapeutically effective dose, the compounds of the present invention have no problem in safety to living body.

Setting [6] is: 25% reduction of blood glucose, fasted ddY male mice, oral, three hours after administration.
Where [7] appears, read: 50% of cAMP accumulation, CHO/pKREX10-36, 37° C., 30 minutes, read-out: EC50 value β3 -receptor.

The source of these data is US5817689A, “Indole derivatives having a 2-phenyl-ethanolamino-substituted lower alkyl group at the 2-or 3-position thereof” (priority 1994, dated 1998).

pEC50: −log10 of the molar value. Like-named read-outs stand apart in the source and are kept apart here.

T1 sequence (P13945 whole entry): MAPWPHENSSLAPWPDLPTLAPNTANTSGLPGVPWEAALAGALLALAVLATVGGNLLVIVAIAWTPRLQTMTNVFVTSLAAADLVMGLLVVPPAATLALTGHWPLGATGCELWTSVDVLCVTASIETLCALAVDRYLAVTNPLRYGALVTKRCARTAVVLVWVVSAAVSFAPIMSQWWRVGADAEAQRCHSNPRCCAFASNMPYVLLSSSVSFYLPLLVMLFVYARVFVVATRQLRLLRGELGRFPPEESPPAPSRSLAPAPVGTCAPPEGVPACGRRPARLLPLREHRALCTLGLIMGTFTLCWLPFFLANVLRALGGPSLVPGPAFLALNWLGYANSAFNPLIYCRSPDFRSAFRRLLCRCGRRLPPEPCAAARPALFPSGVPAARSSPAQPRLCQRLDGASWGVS
T2 sequence (P07550 whole entry): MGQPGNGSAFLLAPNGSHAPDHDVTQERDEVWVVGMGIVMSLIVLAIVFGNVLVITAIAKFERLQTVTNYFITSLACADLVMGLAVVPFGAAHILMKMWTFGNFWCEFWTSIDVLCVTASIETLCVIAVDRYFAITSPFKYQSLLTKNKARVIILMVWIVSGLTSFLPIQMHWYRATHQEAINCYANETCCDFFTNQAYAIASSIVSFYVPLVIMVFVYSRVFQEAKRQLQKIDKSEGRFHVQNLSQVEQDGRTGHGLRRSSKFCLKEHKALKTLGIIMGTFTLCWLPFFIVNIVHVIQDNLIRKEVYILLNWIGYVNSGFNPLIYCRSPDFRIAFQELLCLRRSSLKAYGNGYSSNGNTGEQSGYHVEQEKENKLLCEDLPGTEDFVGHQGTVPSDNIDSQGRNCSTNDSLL

By pEC50 is commonly meant −log10 of the EC50, conventionally taken in molar units. With `Cc1cccc2c(CC(C)NCC(O)c3cccc(Cl)c3)c[nH]c12` (stereo not shown) [Example 6], in series [1], the pEC50 is 7.46, the “Ratio of EC50 β2 /β3” value was 2.5 and the Emax was 91%. In series [2], the pEC50 is 7.06 and the Emax is 19%. The ED25 in series [3] (po) was 4.5 mg/kg.

For `COc1ccc(C(O)CNCCc2c[nH]c3ccccc23)cc1Br` (stereo not shown), the “Pharmacological Activity (antibacterial)” value in the series with bacteria is listed as “Antibacterial activity”.

Regarding `CC(Cc1c[nH]c2ccccc12)NCC(O)c1ccc(O)c(O)c1` (stereo not shown), the “Pharmacological Activity (central nervous system)” value in the series with Central nervous system is “Central nervous system inhibitory”.

For the molecule `Cc1ccc(S(=O)(=O)NC(=O)NN2CC3CCCC3C2)cc1` (stereo not shown) [Gliclazide, reference compound], the ED25 in series [3] (setting [6]) came out at 0.87 mg/kg.

For `COC(=O)COc1ccc2c(CC(C)NCC(O)c3cccc(Cl)c3)c[nH]c2c1` (stereo not shown) [Example 7], in series [1], the pEC50 is 7.60, the “Ratio of EC50 β2 /β3” value is listed as 1.3 and the Emax was found to be 76%. Moreover, in series [2], the negative-log EC50 (pEC50) is 7.48 and the Emax turned out to be 15%. For the same molecule, the ED25 in series [3] (po) worked out at 1.5 mg/kg.

On to `COC(=O)c1ccc2c(CC(C)NCC(O)c3cccc(Cl)c3)c[nH]c2c1` (stereo not shown) [Example 8], for which, in series [1], the negative-log EC50 (pEC50) is 7.51 and the Emax came to 92%. Further, the “I.A. value β2 -receptor” value in series [2] (intrinsic activity: maximal cAMP response relative to 10^-5 M (-)-isoproterenol = 100%) was 5%. Further, the ED25 in series [3] (po) stood at 1.4 mg/kg.

Turning to `COc1cccc2c(CC(C)NCC(O)c3cccc(Cl)c3)c[nH]c12` (stereo not shown) [Example 1, 2-[3-(7-methoxyindol-3-yl)-2-propylamino]-1-(3-chlorophenyl)ethanol], the results for the pEC50 in series [1] (setting [7]) and in series [2] were 8.77 and 7.60, respectively. The results for the Emax in series [1] and in series [2] were 113% and 33%, respectively. Besides, the ED25 in series [3] (po) came out at 0.05 mg/kg. In addition, the “Weight of brown adipose tissue” value in series [4] (control 0.460 ± 0.03) was found to be 0.289 ± 0.04 g. In series [4] (control 4.92 ± 0.28), the “Weight of white adipose tissue” value turned out to be 2.35 ± 0.12 g.

Regarding `COc1ccc2c(CC(C)NCC(O)c3cccc(Cl)c3)c[nH]c2c1` (stereo not shown) [Example 3], the pEC50 was 7.66 in series [1] (setting [7]) and 6.77 in series [2]. Besides, the Emax in series [1] was found to be 102%; in series [2], 22%. Also, in series [3] (po), the ED25 worked out at 3.3 mg/kg.

With `CCOc1cccc2c(CC(C)NCC(O)c3cccc(Cl)c3)c[nH]c12` (stereo not shown) [Example 2, 2-[3-(7-ethoxyindol-3-yl)-2-propylamino]-1-(3-chlorophenyl)ethanol], in series [1], the pEC50 was 8.70 and the Emax was 117%. For the same molecule, the “stimulating activity of human β3 -adrenergic receptor (in words)” value in series [1] (conclusion from Table 5) is listed as “potent stimulating activity of human β3 -adrenergic receptor”. In addition, in series [2], the pEC50 is 7.26 and the Emax is 31%. In series [3] (po), the ED25 was found to be 0.03 mg/kg.

`COc1cccc2c(CC(C)NC[C@H](O)c3cccc(Cl)c3)c[nH]c12` (stereo partly drawn) [Example 1-A, 2-[3-(7-methoxyindol-3-yl)-2-propylamino]-(1R)-1-(3-chlorophenyl)ethanol]: the negative-log EC50 (pEC50) is 9.17 in series [1] (setting [7]) and 7.89 in series [2]. For the same molecule, the results for the Emax in series [1] and in series [2] were 114% and 36%, respectively. The ED25 in series [3] (po) was 0.003 mg/kg. Further, the acute toxicity entry in series [5] was “no toxicity at all”.

Turning to `Cc1ccc2c(CC(C)NCC(O)c3cccc(Cl)c3)c[nH]c2c1` (stereo not shown) [Example 5], the results for the pEC50 in series [1] (setting [7]) and in series [2] were 7.92 and 7.48, respectively. In addition, the figures for the Emax in series [1] and in series [2] were 95% and 41%, respectively. In series [3] (po), the ED25 came to 4.5 mg/kg.

As to `Cc1cccc2[nH]cc(CC(C)NCC(O)c3cccc(Cl)c3)c12` (stereo not shown) [Example 10], the ED25 in series [3] (setting [6]) amounted to 0.1 mg/kg.
